How the values were obtained:
Danio rerio embryo/larva [1] = assay: max % larvae with edema across tested concentrations; higher = more toxic; extreme values may be limits of the assay; settings: exposure: 6-8 hpf to 5 dpf, scored at 6 dpf
Danio rerio embryo/larva [2] = assay: max % larvae with abnormal position across tested concentrations; higher = more toxic; extreme values may be limits of the assay; settings: exposure: 6-8 hpf to 5 dpf, scored at 6 dpf
Danio rerio embryo/larva [3] = assay: max % larvae with tail defects across tested concentrations; higher = more toxic; extreme values may be limits of the assay; settings: exposure: 6-8 hpf to 5 dpf, scored at 6 dpf
Danio rerio embryo/larva [4] = assay: max % larvae with blood pooling across tested concentrations; higher = more toxic; extreme values may be limits of the assay; settings: exposure: 6-8 hpf to 5 dpf, scored at 6 dpf
Danio rerio embryo/larva [5] = assay: max % larvae with spinal defects across tested concentrations; higher = more toxic; extreme values may be limits of the assay; settings: exposure: 6-8 hpf to 5 dpf, scored at 6 dpf
Danio rerio embryo/larva [6] = assay: BMC general abnormality; higher = less potent; settings: exposure: 6-8 hpf to 5 dpf, scored at 6 dpf
Protocol: (§1)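 Zebrafish embryos (with chorion) were exposed from 6-8 hpf to each PFAS (8-point half-log series, top concentration up to 100 uM, 0.4% DMSO, sealed plates, 26 C; n = 6 embryos per concentration), rinsed at 5 dpf and scored at 6 dpf by two blinded observers for mortality, hatching and malformations. Endpoint scores are the % of living larvae affected (dead larvae excluded; […]). Curves were fitted with tcpl (cutoff 16%), and the BMC is the concentration at a benchmark response of 21.6%.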

Danio rerio embryo/larva [7] = assay: max % larvae with craniofacial defects across tested concentrations; higher = more toxic; extreme values may be limits of the assay; settings: exposure: 6-8 hpf to 5 dpf, scored at 6 dpf
Danio rerio embryo/larva [8] = assay: max % larvae with pigmentation defects across tested concentrations; higher = more toxic; settings: exposure: 6-8 hpf to 5 dpf, scored at 6 dpf
Danio rerio embryo/larva [9] = assay: max % larvae generally abnormal across tested concentrations; higher = more toxic; extreme values may be limits of the assay; settings: exposure: 6-8 hpf to 5 dpf, scored at 6 dpf
Danio rerio embryo/larva [10] = assay: max % larvae with uninflated swim bladder across tested concentrations; higher = more toxic; extreme values may be limits of the assay; settings: exposure: 6-8 hpf to 5 dpf, scored at 6 dpf
Danio rerio embryo/larva [11] = assay: max % larvae with any abnormality across tested concentrations; max tested concentration (log10 uM): 2; higher = more toxic; extreme values may be limits of the assay; settings: exposure: 6-8 hpf to 5 dpf, scored at 6 dpf
Danio rerio embryo/larva [12] = assay: BMC any abnormality; max tested concentration (log10 uM): 2; higher = less potent; settings: exposure: 6-8 hpf to 5 dpf, scored at 6 dpf
Protocol: as §1

Danio rerio embryo/larva [13] = assay: max % larvae unhatched across tested concentrations; max tested concentration (log10 uM): 2; higher = more toxic; settings: exposure: 6-8 hpf to 5 dpf, scored at 6 dpf
Danio rerio embryo/larva [14] = assay: BMC swim bladder non-inflation; higher = less potent; settings: max tested concentration (log10 uM): 2; exposure: 6-8 hpf to 5 dpf, scored at 6 dpf
Protocol: as §1

Danio rerio embryo/larva [15] = assay: BMC edema; higher = less potent; settings: max tested concentration (log10 uM): 2; exposure: 6-8 hpf to 5 dpf, scored at 6 dpf
Protocol: as §1

Danio rerio embryo/larva [16] = assay: max % larvae dead across tested concentrations; max tested concentration (log10 uM): 2; higher = more toxic; extreme values may be limits of the assay; settings: exposure: 6-8 hpf to 5 dpf, scored at 6 dpf

| Structure (SMILES) | max % larvae (Danio rerio embryo/larva [1]) | max % larvae (Danio rerio embryo/larva [2]) | max % larvae (Danio rerio embryo/larva [3]) | max % larvae (Danio rerio embryo/larva [4]) | max % larvae (Danio rerio embryo/larva [5]) | BMC general abnormality (Danio rerio embryo/larva [6]) | max % larvae (Danio rerio embryo/larva [7]) | max % larvae (Danio rerio embryo/larva [8]) | max % larvae generally abnormal across tested concentrations (Danio rerio embryo/larva [9]) | max % larvae (Danio rerio embryo/larva [10]) | max % larvae (Danio rerio embryo/larva [11]) | BMC any abnormality (Danio rerio embryo/larva [12]) | max % larvae unhatched across tested concentrations (Danio rerio embryo/larva [13]) | BMC swim bladder non-inflation (Danio rerio embryo/larva [14]) | BMC edema (Danio rerio embryo/larva [15]) | max % larvae dead across tested concentrations (Danio rerio embryo/larva [16]) |
| --- | --- | --- | --- | --- | --- | --- | --- | --- | --- | --- | --- | --- | --- | --- | --- | --- |
| O=C(Cl)C(F)(F)C(F)(F)C(F)(F)C(F)(F)C(F)(F)C(F)(F)C(F)(F)C(F)(F)F [Perfluorononanoyl chloride] (max tested concentration (log10 uM): 1.47712) | 16.7% | 4.17% | 0% | 16.7% | 0% | 13.1 µM | 0% | 0% | 29.2% | 50% |  |  |  |  |  |  |
| C=CC(=O)OCCC(F)(F)C(F)(F)C(F)(F)C(F)(F)F [2-(Perfluorobutyl)ethyl acrylate] |  |  |  |  |  |  |  |  |  |  | 100% | 26.3 µM | 0% | 75.7 µM |  |  |
| NCC(F)(F)C(F)(F)C(F)(F)C(F)(F)C(F)(F)C(F)(F)F [1H,1H-Perfluoroheptylamine] (max tested concentration (log10 uM): 2) | 33.3% |  | 0% | 0% | 0% | 79.2 µM | 0% | 0% | 33.3% | 0% |  |  |  |  |  |  |
| FC(F)C(F)(F)COCC1CO1 (stereo not drawn) [((2,2,3,3-Tetrafluoropropoxy)methyl)oxirane] |  |  |  |  |  |  |  |  |  |  | 91.7% | 26.5 µM | 0% | 27.7 µM | 32.6 µM | 0% |
| CNS(=O)(=O)C(F)(F)C(F)(F)C(F)(F)C(F)(F)C(F)(F)C(F)(F)C(F)(F)C(F)(F)F [N-Methylperfluorooctanesulfonamide] (max tested concentration (log10 uM): 2) | 36.4% | 8.33% | 0% | 0% | 0% | 0.968 µM | 18.2% | 0% | 50% | 90.9% |  |  |  |  |  |  |
| O=C(O)C(F)(F)C(F)(F)C(F)(F)C(F)(F)C(F)(F)C(F)(F)C(F)(F)C(F)(F)F [Perfluorononanoic acid] (max tested concentration (log10 uM): 2) | 75% | 37.5% | 50% | 16.7% | 25% | 28 µM | 100% | 0% | 75% | 100% |  |  |  |  |  |  |
| O=C(O)CCC(F)(F)C(F)(F)C(F)(F)C(F)(F)C(F)(F)F [2H,2H,3H,3H-Perfluorooctanoic acid] (max tested concentration (log10 uM): 1.47712) | 100% | 25% | 25% | 100% | 12.5% | 9.38 µM | 100% | 0% | 100% | 100% |  |  |  |  |  |  |
| NS(=O)(=O)C(F)(F)C(F)(F)C(F)(F)C(F)(F)C(F)(F)C(F)(F)C(F)(F)C(F)(F)F [Perfluorooctanesulfonamide] (max tested concentration (log10 uM): 0) | 37.5% | 8.33% | 0% | 16.7% | 0% | 0.381 µM | 8.33% | 0% | 41.7% | 50% |  |  |  |  |  |  |
| O=C(O)C(F)(F)C(F)(F)C(F)(F)C(F)(F)C(F)(F)C(F)(F)C(F)(F)C(F)(F)C(F)(F)C(F)(F)F [Perfluoroundecanoic acid] (max tested concentration (log10 uM): 0.477121) | 25% | 8.33% | 12.5% | 8.33% | 8.33% | 2.74 µM | 16.7% | 0% | 25% | 16.7% |  |  |  |  |  |  |
| NCC(F)(F)C(F)(F)C(F)(F)C(F)(F)C(F)(F)C(F)(F)F [1H,1H-Perfluoroheptylamine] |  |  |  |  |  |  |  |  |  |  | 33.3% | 79.2 µM | 0% |  | 79.2 µM | 0% |
| OCC(F)(F)C(F)(F)C(F)(F)C(F)(F)C(F)(F)C(F)(F)C(F)(F)C(F)(F)CO [1H,1H,10H,10H-Perfluorodecane-1,10-diol] (max tested concentration (log10 uM): 1) | 66.7% | 4.17% | 8.33% | 33.3% | 4.17% | 3.79 µM | 83.3% | 0% | 75% | 83.3% |  |  |  |  |  |  |
| FC(F)(F)C(F)(F)C(F)(F)C(F)(F)C(F)(F)C(F)(F)C(F)(F)I [1-Iodopentadecafluoroheptane] |  |  |  |  |  |  |  |  |  |  | 83.3% | 10.9 µM | 0% | 56.7 µM |  | 16.7% |
| FC(F)(F)C(F)(F)C(F)(F)C(F)(F)C(F)(F)CCI [1-Iodo-1H,1H,2H,2H-perfluoroheptane] |  |  |  |  |  |  |  |  |  |  | 72.9% | 29.3 µM | 0% | 31.5 µM | 31.5 µM |  |
| Cc1ccc(S(=O)(=O)OCC(F)(F)C(F)(F)C(F)(F)C(F)(F)C(F)(F)C(F)F)cc1 [1H,1H,7H-Perfluoroheptyl 4-methylbenzenesulfonate] |  |  |  |  |  |  |  |  |  |  | 75% | 20.3 µM | 0% | 8.97 µM |  | 0% |
| O=P(O)(O)CCC(F)(F)C(F)(F)C(F)(F)C(F)(F)C(F)(F)C(F)(F)F [2-(Perfluorohexyl)ethylphosphonic acid] |  |  |  |  |  |  |  |  |  |  | 95.8% | 21.9 µM | 0% |  | 22.5 µM |  |

From the supplement of paper PMC11281043
